Key:
NCI-H226 = experiment: cells; type: cell-based; details: Homo sapiens; NCI-H226, non-small cell lung cancer, 48 h; read-out: Log10 GI50 (converted)
SR = experiment: cells; type: cell-based; details: Homo sapiens, 48 h
TK-10 = experiment: cells; type: cell-based; details: Homo sapiens, TK-10, renal cancer, 48 h
NCI-H23 = experiment: cells; type: cell-based; details: Homo sapiens; NCI-H23, non-small cell lung cancer, 48 h; read-out: Log10 GI50 (converted)
M14 = experiment: NCI 60 cell line panel screening assay (SRB), M14; details: Homo sapiens, M14, 48 h, read-out: Log10 LC50 (converted)
MOLT-4 [1] = details: MOLT-4, FIG. 6
MDA-N = experiment: NCI 60 cell line panel screening assay (SRB), MDA-N; type: cell-based; details: Homo sapiens, breast cancer, 48 h, read-out: Log10 GI50 (converted)
UACC-257 = experiment: cells; type: cell-based; details: Homo sapiens, UACC-257, 48 h
MOLT-4 [2] = experiment: cells; details: Homo sapiens
MCF7 = experiment: cells; type: cell-based; details: Homo sapiens, MCF7, breast cancer, 48 h
HT29 = experiment: cells; type: cell-based; details: Homo sapiens, HT-29; HT29, colon cancer, 48 h; read-out: Log10 GI50 (converted)
T-47D = experiment: NCI 60 cell line panel screening assay (SRB), T-47D; details: Homo sapiens, T47D, 48 h, read-out: Log10 TGI
60 cell line panel = experiment: NCI 60 cell line panel, whole panel; details: panel
HOP-92 = experiment: cells; type: cell-based; details: Homo sapiens; HOP-92, non-small cell lung cancer, 48 h; read-out: Log10 GI50 (converted)
RPMI-8226 = experiment: NCI 60 cell line panel screening assay (SRB), RPMI-8226; type: cell-based; details: Homo sapiens; RPMI-8226, leukemia, 48 h; read-out: Log10 GI50 (converted)
K-562 = experiment: cells; type: cell-based; details: Homo sapiens, K562; K-562, leukemia, 48 h; read-out: Log10 TGI (converted)
SNB-19 = experiment: cells; type: cell-based; details: Homo sapiens, SNB-19, CNS cancer, 48 h
UACC-62 = experiment: cells; type: cell-based; details: Homo sapiens, UACC-62, melanoma, 48 h
PC-3 = experiment: cells; type: cell-based; details: Homo sapiens; PC-3, prostate cancer, 48 h; read-out: Log10 TGI
SN12C = experiment: NCI 60 cell line panel screening assay (SRB), SN12C; type: cell-based; details: Homo sapiens, renal cancer, 48 h, read-out: Log10 TGI
A498 = experiment: cells; type: cell-based; details: Homo sapiens, A498, renal cancer, 48 h
U251 = experiment: cells; type: cell-based; details: Homo sapiens, U-251; U251, CNS cancer, 48 h; read-out: Log10 GI50 (converted)
[3] = read-out: Log10 GI50 (converted)

## C[C@@H]1CC[C@H]2[C@@H](C)C(=O)O[C@@H]3O[C@@]4(C)CC[C@@H]1[C@]32OO4 [Artemisinin]
NCI-H226
  GI50: > 100 µM
SR; read-out: Log10 LC50 (converted)
  CC50: > 100 µM
SR; leukemia, read-out: Log10 GI50 (converted)
  GI50: > 100 µM
TK-10; [3]
  GI50: > 100 µM
TK-10; read-out: Log10 TGI
  IC (TGI): > 100 µM
NCI-H23
  GI50: > 100 µM
M14
  CC50: > 100 µM
MOLT-4 [1]
  concentration for cytostasis (PG 0): greater than 10^-4 M
MDA-N
  GI50: > 100 µM
UACC-257; [3]
  GI50: > 100 µM
UACC-257; read-out: Log10 TGI (converted)
  IC (TGI): > 100 µM
MOLT-4 [2]; MOLT-4, 48 h, read-out: Log10 GI50 (converted)
  GI50: 18.6 µM
MOLT-4 [2]; MOLT-4, 48 h, read-out: Log10 TGI
  IC (TGI): 100 µM
MOLT-4 [2]; MOLT-4, read-out: concentration for primary growth inhibition (PG +50)
  IC50: > 100 µM
MCF7; [3]
  GI50: > 100 µM
MCF7; read-out: Log10 TGI
  IC (TGI): > 100 µM
HT29
  GI50: > 100 µM
T-47D
  IC (TGI): > 100 µM
60 cell line panel
  Delta of Log10 LC50: -4.00
  Range of Log10 TGI: 0.06
HOP-92
  GI50: > 100 µM
RPMI-8226
  GI50: > 100 µM
K-562
  IC (TGI): 100 µM
SNB-19; [3]
  GI50: > 100 µM
SNB-19; read-out: Log10 TGI
  IC (TGI): > 100 µM
UACC-62; [3]
  GI50: > 100 µM
UACC-62; read-out: Log10 TGI
  IC (TGI): > 100 µM
PC-3
  IC (TGI): > 100 µM
SN12C
  IC (TGI): > 100 µM
A498; [3]
  GI50: > 100 µM
A498; read-out: Log10 TGI
  IC (TGI): > 100 µM
U251
  GI50: > 100 µM
